Experimental data reported in ChEMBL document CHEMBL1125272, “Synthetic approaches to the guanosine and xanthosine analogues 5-amino-3-beta-D-ribofuranosylpyrazolo[3,4-e][1,3]oxazin-7-one and 3-beta-D-ribofuranosylpyrazolo[3,4-e][1,3]oxazine-5,7-dione and studies of their antitumor potential” (J Med Chem, 1991).

Test system: L1210
Test: Capacity to inhibit tumor cells in vitro using L1210 murine leukemia cells
Type: functional, cell-based
Settings: Mus musculus

Row | IC50 | SMILES
1 | 0.2 µM | O=c1[nH]c(=O)c2[nH]nc([C@@H]3O[C@H](CO)[C@@H](O)[C@H]3O)c2o1
2 | 100 µM | NC1=NC(=O)C2N=NC([C@@H]3O[C@H](CO)[C@@H](O)[C@H]3O)=C2O1 (some centres not stated)
